Tests used:
[1] = tested on: Puccinia recondita f. Sp. Tritici; assay: Fungicidal activity against Puccinia recondita f. sp. tritici / wheat / leaf disc curative (brown rust); assay type: in vivo; conditions: foliar, 24 h, 200 ppm in the applied formulation, wheat leaf segments cv. Kanzler, curative (applied 1 day after inoculation), compared to untreated, read-out: disease control
Protocol: Leaf disks or leaf segments of various plant species are cut from plants grown in a greenhouse. The cut leaf disks or segments are placed in multiwell plates (24-well format) onto water agar. The leaf disks are sprayed with a test solution before (preventative) or after (curative) inoculation. Compounds to be tested are prepared as DMSO solutions (max. 10 mg/mL) which are diluted to the appropriate concentration with 0.025% Tween20 just before spraying. The inoculated leaf disks or segments are incubated under defined conditions (temperature, relative humidity, light, etc.) according to the respective test system. A single evaluation of disease level is carried out 3 to 14 days after inoculation, depending on the pathosystem. Percent disease control relative to the untreated check leaf disks or segments is then calculated. Wheat leaf segments cv. Kanzler are placed on agar in multiwell plates (24-well format). The leaf segments are then inoculated with a spore suspension of the fungus. Plates were stored in darkness at 19C and 75% relative humidity. The formulated test compound diluted in water was applied 1 day after inoculation. The leaf segments were incubated at 19° C. and 75% relative humidity under a light regime of 12 hours light/12 hours darkness in a climate cabinet and the activity of a compound was assessed as percent disease control compared to untreated when an appropriate level of disease damage appears in untreated check leaf segments (6 to 8 days after application). The following compounds at 200 ppm in the applied formulation give at least 80% disease control in this test when compared to untreated control leaf disks under the same conditions, which show extensive disease development.

[2] = tested on: Puccinia recondita f. Sp. Tritici; assay: Fungicidal activity against Puccinia recondita f. sp. tritici / wheat / leaf disc preventative (brown rust); assay type: in vivo; conditions: foliar, 200 ppm in the applied formulation, wheat leaf segments cv. Kanzler, preventative (inoculated 1 day after application), compared to untreated, read-out: disease control
Protocol: Leaf disks or leaf segments of various plant species are cut from plants grown in a greenhouse. The cut leaf disks or segments are placed in multiwell plates (24-well format) onto water agar. The leaf disks are sprayed with a test solution before (preventative) or after (curative) inoculation. Compounds to be tested are prepared as DMSO solutions (max. 10 mg/mL) which are diluted to the appropriate concentration with 0.025% Tween20 just before spraying. The inoculated leaf disks or segments are incubated under defined conditions (temperature, relative humidity, light, etc.) according to the respective test system. A single evaluation of disease level is carried out 3 to 14 days after inoculation, depending on the pathosystem. Percent disease control relative to the untreated check leaf disks or segments is then calculated. Wheat leaf segments cv. Kanzler were placed on agar in multiwell plates (24-well format) and sprayed with the formulated test compound diluted in water. The leaf disks were inoculated with a spore suspension of the fungus 1 day after application. The inoculated leaf segments were incubated at 19° C. and 75% relative humidity (rh) under a light regime of 12 hours light/12 hours darkness in a climate cabinet and the activity of a compound was assessed as percent disease control compared to untreated when an appropriate level of disease damage appears in untreated check leaf segments (7 to 9 days after application). The following compounds at 200 ppm in the applied formulation give at least 80% disease control in this test when compared to untreated control leaf disks under the same conditions, which show extensive disease development.

[3] = tested on: Glomerella lagenarium (Colletotrichum lagenarium); assay: Fungicidal activity against Glomerella lagenarium (Colletotrichum lagenarium) liquid culture / cucumber / preventative (anthracnose); assay type: cell-based; conditions: Colletotrichum orbiculare; 20 ppm in the applied formulation; liquid culture (PDB), inhibition of growth measured photometrically 3 to 4 days after application; compared to untreated; read-out: disease control
Protocol: Mycelia fragments or conidia suspensions of a fungus prepared either freshly from liquid cultures of the fungus or from cryogenic storage, are directly mixed into nutrient broth. DMSO solutions of the test compound (max. 10 mg/mL) are diluted with 0.025% Tween20 by a factor of 50 and 10 μL of this solution is pipetted into a microtiter plate (96-well format). The nutrient broth containing the fungal spores/mycelia fragments is then added to give an end concentration of the tested compound. The test plates are incubated in the dark at 24° C. and 96% relative humidity. The inhibition of fungal growth is determined photometrically after 2 to 7 days, depending on the pathosystem, and percent antifungal activity relative to the untreated check is calculated. Conidia of the fungus from cryogenic storage are directly mixed into nutrient broth (PDB—potato dextrose broth). After placing a (DMSO) solution of test compound into a microtiter plate (96-well format), the nutrient broth containing the fungal spores is added. The test plates are incubated at 24° C. and the inhibition of growth is measured photometrically 3 to 4 days after application. The following compounds at 20 ppm in the applied formulation give at least 80% disease control in this test when compared to untreated control under the same conditions, which show extensive disease development.

C#CCNC(=O)c1ncn(Cc2ccc(-c3noc(C(F)(F)F)n3)s2)n1 [Compound 1.98, N-prop-2-ynyl-1-[[5-[5-(trifluoromethyl)-1,2,4-oxadiazol-3-yl]-2-thienyl]methyl]-1,2,4-triazole-3-carboxamide]
≥ 80%: pest or weed control at 200 ppm [1] | pest or weed control at 200 ppm [2] | inhibition of growth at 20 ppm [3]

CCNC(=O)c1cnn(Cc2ccc(-c3noc(C(F)(F)F)n3)s2)c1 [Compound 1.106, N-ethyl-1-[[5-[5-(trifluoromethyl)-1,2,4-oxadiazol-3-yl]-2-thienyl]methyl]pyrazole-4-carboxamide]
≥ 80%: pest or weed control at 200 ppm [1] | pest or weed control at 200 ppm [2] | inhibition of growth at 20 ppm [3]

Cc1cc(N)n(Cc2ccc(-c3noc(C(F)(F)F)n3)s2)n1 [Compound 1.16, 5-methyl-2-[[5-[5-(trifluoromethyl)-1,2,4-oxadiazol-3-yl]-2-thienyl]methyl]pyrazol-3-amine]
≥ 80%: pest or weed control at 200 ppm [1] | pest or weed control at 200 ppm [2] | inhibition of growth at 20 ppm [3]

C=CCNC(=O)c1cnn(C(C)c2ccc(-c3noc(C(F)(F)F)n3)s2)c1 (stereo not drawn) [Compound 1.73, N-allyl-1-[1-[5-[5-(trifluoromethyl)-1,2,4-oxadiazol-3-yl]-2-thienyl]ethyl]pyrazole-4-carboxamide]
≥ 80%: pest or weed control at 200 ppm [1] | pest or weed control at 200 ppm [2] | inhibition of growth at 20 ppm [3]

CONC(=O)c1cnn(C(C)c2ccc(-c3noc(C(F)(F)F)n3)s2)c1 (stereo not drawn) [Compound 1.82, N-methoxy-1-[1-[5-[5-(trifluoromethyl)-1,2,4-oxadiazol-3-yl]-2-thienyl]ethyl]pyrazole-4-carboxamide]
≥ 80%: pest or weed control at 200 ppm [1] | pest or weed control at 200 ppm [2] | inhibition of growth at 20 ppm [3]

O=C(NC1CCCC1)c1ncn(Cc2ccc(-c3noc(C(F)(F)F)n3)s2)n1 [Compound 1.94, N-cyclopentyl-1-[[5-[5-(trifluoromethyl)-1,2,4-oxadiazol-3-yl]-2-thienyl]methyl]-1,2,4-triazole-3-carboxamide]
≥ 80%: pest or weed control at 200 ppm [1] | pest or weed control at 200 ppm [2] | inhibition of growth at 20 ppm [3]

O=[N+]([O-])c1cnn(Cc2ccc(-c3noc(C(F)(F)F)n3)s2)c1 [Compound 1.9, 3-[5-[(4-nitropyrazol-1-yl)methyl]-2-thienyl]-5-(trifluoromethyl)-1,2,4-oxadiazole]
≥ 80%: pest or weed control at 200 ppm [1] | pest or weed control at 200 ppm [2] | inhibition of growth at 20 ppm [3]

CCCNC(=O)c1ccn(Cc2ccc(-c3noc(C(F)(F)F)n3)s2)n1 [Compound 1.137, N-propyl-1-[[5-[5-(trifluoromethyl)-1,2,4-oxadiazol-3-yl]-2-thienyl]methyl]pyrazole-3-carboxamide]
≥ 80%: pest or weed control at 200 ppm [1] | pest or weed control at 200 ppm [2] | inhibition of growth at 20 ppm [3]

O=Cc1cnn(Cc2ccc(-c3noc(C(F)(F)F)n3)s2)c1 [Compound 1.22, 1-[[5-[5-(trifluoromethyl)-1,2,4-oxadiazol-3-yl]-2-thienyl]methyl]pyrazole-4-carbaldehyde]
≥ 80%: pest or weed control at 200 ppm [1] | pest or weed control at 200 ppm [2] | inhibition of growth at 20 ppm [3]

CNC(=O)c1cnn(C(C)c2ccc(-c3noc(C(F)(F)F)n3)s2)c1 (stereo not drawn) [Compound 1.70, N-methyl-1-[1-[5-[5-(trifluoromethyl)-1,2,4-oxadiazol-3-yl]-2-thienyl]ethyl]pyrazole-4-carboxamide]
≥ 80%: pest or weed control at 200 ppm [1] | pest or weed control at 200 ppm [2] | inhibition of growth at 20 ppm [3]

CCNC(=O)c1ccn(Cc2ccc(-c3noc(C(F)(F)F)n3)s2)n1 [Compound 1.120, N-ethyl-1-[[5-[5-(trifluoromethyl)-1,2,4-oxadiazol-3-yl]-2-thienyl]methyl]pyrazole-3-carboxamide]
≥ 80%: pest or weed control at 200 ppm [1] | pest or weed control at 200 ppm [2] | inhibition of growth at 20 ppm [3]

CC(C)(C)CNC(=O)c1ncn(Cc2ccc(-c3noc(C(F)(F)F)n3)s2)n1 [Compound 1.145, N-(2,2-dimethylpropyl)-1-[[5-[5-(trifluoromethyl)-1,2,4-oxadiazol-3-yl]-2-thienyl]methyl]-1,2,4-triazole-3-carboxamide]
≥ 80%: pest or weed control at 200 ppm [1] | pest or weed control at 200 ppm [2] | inhibition of growth at 20 ppm [3]

N#Cc1cnn(Cc2ccc(-c3noc(C(F)(F)F)n3)s2)c1 [Compound 1.11, 1-[[5-[5-(trifluoromethyl)-1,2,4-oxadiazol-3-yl]-2-thienyl]methyl]pyrazole-4-carbonitrile]
≥ 80%: pest or weed control at 200 ppm [1] | pest or weed control at 200 ppm [2] | inhibition of growth at 20 ppm [3]

CC(c1ccc(-c2noc(C(F)(F)F)n2)s1)n1cc(C(=O)NCc2ccco2)cn1 (stereo not drawn) [Compound 1.85, N-(2-furylmethyl)-1-[1-[5-[5-(trifluoromethyl)-1,2,4-oxadiazol-3-yl]-2-thienyl]ethyl]pyrazole-4-carboxamide]
≥ 80%: pest or weed control at 200 ppm [1] | pest or weed control at 200 ppm [2] | inhibition of growth at 20 ppm [3]

O=C(NCc1ccco1)c1cnn(Cc2ccc(-c3noc(C(F)(F)F)n3)s2)c1 [Compound 1.129, N-(2-furylmethyl)-1-[[5-[5-(trifluoromethyl)-1,2,4-oxadiazol-3-yl]-2-thienyl]methyl]pyrazole-4-carboxamide]
≥ 80%: pest or weed control at 200 ppm [1] | pest or weed control at 200 ppm [2] | inhibition of growth at 20 ppm [3]

CC(C)CNC(=O)c1cnn(Cc2ccc(-c3noc(C(F)(F)F)n3)s2)c1 [Compound 1.109, N-isobutyl-1-[[5-[5-(trifluoromethyl)-1,2,4-oxadiazol-3-yl]-2-thienyl]methyl]pyrazole-4-carboxamide]
≥ 80%: pest or weed control at 200 ppm [1] | pest or weed control at 200 ppm [2] | inhibition of growth at 20 ppm [3]

CC(C)NC(=O)c1cnn(Cc2ccc(-c3noc(C(F)(F)F)n3)s2)c1 [Compound 1.102, N-isopropyl-1-[[5-[5-(trifluoromethyl)-1,2,4-oxadiazol-3-yl]-2-thienyl]methyl]pyrazole-4-carboxamide]
≥ 80%: pest or weed control at 200 ppm [1] | pest or weed control at 200 ppm [2] | inhibition of growth at 20 ppm [3]

CON(C)C(=O)c1ccnn1Cc1ccc(-c2noc(C(F)(F)F)n2)s1 [Compound 1.158, N-methoxy-N-methyl-2-[[5-[5-(trifluoromethyl)-1,2,4-oxadiazol-3-yl]-2-thienyl]methyl]pyrazole-3-carboxamide]
≥ 80%: pest or weed control at 200 ppm [1] | pest or weed control at 200 ppm [2] | inhibition of growth at 20 ppm [3]

CC(c1ccc(-c2noc(C(F)(F)F)n2)s1)n1cc(C(=O)NCC(C)(C)C)cn1 (stereo not drawn) [Compound 1.66, N-(2,2-dimethylpropyl)-1-[1-[5-[5-(trifluoromethyl)-1,2,4-oxadiazol-3-yl]-2-thienyl]ethyl]pyrazole-4-carboxamide]
≥ 80%: pest or weed control at 200 ppm [1] | pest or weed control at 200 ppm [2] | inhibition of growth at 20 ppm [3]

O=C(NCc1ccco1)c1ncn(Cc2ccc(-c3noc(C(F)(F)F)n3)s2)n1 [Compound 1.96, N-(2-furylmethyl)-1-[[5-[5-(trifluoromethyl)-1,2,4-oxadiazol-3-yl]-2-thienyl]methyl]-1,2,4-triazole-3-carboxamide]
≥ 80%: pest or weed control at 200 ppm [1] | pest or weed control at 200 ppm [2] | inhibition of growth at 20 ppm [3]

Reference: US11358957B2, “Microbiocidal oxadiazole derivatives” (SYNGENTA PARTICIPATIONS AG, priority 2017, dated 2022)
